Laboratory results published in publication PMC6891331, “Virescenosides from the Holothurian-Associated Fungus Acremonium striatisporum Kmm 4401” (Marine Drugs, 2019).

These compounds were tested against urease (Canavalia ensiformis, UniProt P07374) (assay: urease inhibition, ammonia production by indophenol method).
Format: biochemical

Sequence of urease (P07374 whole entry, looked up): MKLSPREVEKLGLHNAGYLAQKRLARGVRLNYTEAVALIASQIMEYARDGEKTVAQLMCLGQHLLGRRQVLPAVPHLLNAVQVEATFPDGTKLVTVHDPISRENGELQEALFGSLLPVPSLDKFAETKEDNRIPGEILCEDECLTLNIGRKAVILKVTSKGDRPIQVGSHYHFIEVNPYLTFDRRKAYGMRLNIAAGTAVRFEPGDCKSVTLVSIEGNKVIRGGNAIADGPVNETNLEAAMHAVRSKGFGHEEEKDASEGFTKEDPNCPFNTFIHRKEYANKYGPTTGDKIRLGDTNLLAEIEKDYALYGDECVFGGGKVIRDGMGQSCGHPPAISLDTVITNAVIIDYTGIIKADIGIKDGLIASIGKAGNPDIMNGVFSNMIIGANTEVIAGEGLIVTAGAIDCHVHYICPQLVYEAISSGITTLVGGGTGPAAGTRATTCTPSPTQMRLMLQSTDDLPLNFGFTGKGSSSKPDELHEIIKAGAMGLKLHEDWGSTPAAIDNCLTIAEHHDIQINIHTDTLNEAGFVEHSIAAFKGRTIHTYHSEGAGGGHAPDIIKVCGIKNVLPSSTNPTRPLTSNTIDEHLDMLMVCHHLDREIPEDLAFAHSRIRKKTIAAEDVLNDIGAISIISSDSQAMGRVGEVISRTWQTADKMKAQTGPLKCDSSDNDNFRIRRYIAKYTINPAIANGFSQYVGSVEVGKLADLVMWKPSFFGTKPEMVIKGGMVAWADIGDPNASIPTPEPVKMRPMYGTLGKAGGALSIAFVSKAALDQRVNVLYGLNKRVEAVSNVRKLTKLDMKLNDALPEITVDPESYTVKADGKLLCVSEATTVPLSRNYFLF

SMILES | IC50 [µM]
C=CC1(C)CCC2C(=CCC3C2(C)CC(O)C(O)C3(C)CO)C1 (stereo not drawn) [compound 14, aglycon of virescenoside A] | 139
C=CC1(C)CCC2=C(CCC3C2(C)CCC(O)C3(C)CO)C1 (stereo not drawn) [compound 15, aglycon of virescenoside B] | 125
NC(N)=S [Thiourea, reference compound] | 23
